Reference: patent publication US11320350B2, “Method for agglutinating erythrocytes, method for separating erythrocytes, and hemagglutination reagent” (DENKA SEIKEN CO., LTD., priority 2016, dated 2022)

System: erythrocytes in a whole blood sample
Assay: hemagglutination evaluation test: whole blood sample added to hemagglutination reagent, rate of agglutination of erythrocytes visually evaluated
Type: cell-based
Parameters: key to Rate of agglutination: +++: Erythrocytes were instantaneously agglutinated into a sufficient size and the agglutinated erythrocytes were precipitated.; ++: Erythrocytes started to agglutinate after leaving to stand for a few seconds, and agglutinated erythrocytes were gradually precipitated.; +: Erythrocytes were agglutinated, but the agglutinates were very small and the agglutination was incomplete.; ±: Only very few erythrocytes were agglutinated.; −: Erythrocytes were hemolyzed without being agglutinated
Details: citric acid 100 mM in physiologic saline, pH3.0
Procedure: To 71 mL of distilled water, 10 mL of 10 w/v % sodium taurodeoxycholate hydrate (TDOC), 10 mL of 1 M citric acid, and 9 mL of 10 w/v % sodium chloride were added to prepare a solution containing 100 mM citric acid, 1% TDOC, and 0.9% sodium chloride as final concentrations (hemagglutination reagent). A solution was also prepared in the similar manner except that TDOC and/or sodium chloride were not added (hemagglutination reagent), and effects of the presence and absence of the cholic acid-based surfactant and the salt and the pH range on agglutination of erythrocytes were compared.
(§1) After adding 60 μL of a whole blood sample to 400 μL of the hemagglutination reagent, the rate of agglutination of erythrocytes was visually evaluated. The rate of agglutination was evaluated as +++, ++, +, or ± in order of rapidity based on the criteria described below. Hemolysis without agglutination was evaluated as −.
The pH of the hemagglutination reagent was measured using a desktop pH meter (HORIBA) (similarly in the following Examples and Comparative Examples).
Various cholic acid-based surfactants (1% by weight) and citric acid (100 mM) were added to a physiologic saline to prepare hemagglutination reagents (pH3.0) and their abilities to agglutinate erythrocytes were compared.
as §1, with “was” for “was visually”, “−. The following criteria were the same as those in Examples 1 to 4 and Comparative Examples 1-1 to 4-2.” for “−.”
Sodium taurodeoxycholate hydrate (TDOC) and citric acid (100 mM) were added to a physiologic saline to prepare hemagglutination reagents (pH3.0), and their abilities to agglutinate erythrocytes were compared in the concentration range of TDOC as shown in the table below.
as §1, with “was” for “was visually”, “criteria” for “criteria described”, “−. The following criteria were the same as those in Examples 1 to 7 and Comparative Examples 1-1 to 4-2.” for “−.”

Which Rate of agglutination (Concentration of TDOC 0.1 wt %) does the source give for `C[C@H](CCC(=O)NCCS(=O)(=O)[O-])[C@H]1CC[C@H]2[C@@H]3CC[C@@H]4C[C@H](O)CC[C@]4(C)[C@H]3C[C@H](O)[C@]12C.O.[Na+]` [TDOC, sodium taurodeoxycholate hydrate] here?
The Rate of agglutination was “+++”.

And the Rate of agglutination (Concentration of TDOC 0.5 wt %)?
The Rate of agglutination was “+++”.

And the Rate of agglutination (Concentration of TDOC 1.0 wt %)?
Its Rate of agglutination is “+++”.

What about the Rate of agglutination (Concentration of TDOC 6.0 wt %) of the same molecule?
The Rate of agglutination was “+++”.

What about the “effect on hemagglutination (compared among cholic acid-based surfactants)” value (surfactant 1% by weight) of the same molecule?
Its value is “most significant”.
